Laboratory results: patent US12465590B2, “Oxalamido-substituted tricyclic inhibitors of hepatitis b virus” (priority 2019, dated 2025)
Like-named read-outs stand apart in the source and are kept apart here.

Tests used:
HBV [1] = conditions: Phase 1b clinical studies; cited from earlier work
HBV [2] = assay: HBV inhibition assay in HepAD38 cells (extracellular HBV DNA by direct qPCR); type: cell-based, HBV genotype D subtype ayw; conditions: 96 hours, read-out: HBV inh EC50
Description: HepAD38 cell line (Ladner et al., Antimicrob Agents Chemother, 1997, 41, 1715-20) was used for HBV inhibition assays. HepAD38 is a subclone, derived from hepatoblastoma cell line HepG2 (ATCC® Number: HB-8065), that expresses HBV genome (genotype D subtype ayw) under the transcriptional control of a tetracycline-responsive promoter in a TET-OFF system: addition of doxycycline, an antibiotic belonging to the class of tetracycline, suppresses HBV replication, while its removal switches on the process allowing HBV viral particles release in the cell supernatant. HepAD38 cell line is maintained in DMEM/F12, supplemented with 10% of fetal bovine serum, 1% of glutamine, 1% of penicillin/streptomycin, 0.4 mg/ml G418 and 0.3 ug/ml tetracycline. For the HBV inhibition assay, doxycycline-free medium is used in order to allow virion production.
HBV inhibition activity in vitro was performed in 96 multiwell plates. During the initial (primary) screening, compounds were first tested in triplicates at concentrations of 0.02 μM, 0.1 μM, 0.5 μM and 1 μM. For selected compounds, an 8-point dose-response curve was obtained using 1:2 serial dilutions (starting from 0.01 μM, 0.1 μM, 0.4 μM or 5 μM, depending on the degree of inhibition observed during the primary screening). From the dose-response curves, half maximal effective concentration (EC50) could be calculated (see also below).
In more detail, compounds—typically dissolved in DMSO stock solutions—were diluted to 2× the final desired concentration in 100 μl of the above medium (without doxycycline) and plated in three replicates in the 96-well plates.
Simultaneously, HepAD38 cells—extensively pre-washed in doxycycline-free medium in order to induce HBV production—were suspended at 2*10^4 cells in 100 μl of doxycycline-free medium and added to each well of the plate, to yield a final assay volume of 200 μl.
DMSO, used for stock solutions and compounds dilutions, was always present in the assays at a final concentration of 0.5%.
Plates were then incubated 96 hours at 37° C. and then subjected to cell viability assays and extracellular HBV quantification, in order to evaluate both the cytotoxic potential and the antiviral activity of compounds.
Cytotoxicity was assessed by a commercial fluorescence assay that measures the metabolic activity of cells, directly related to cell viability (Cell Titer Blue, Promega). For each compound, cytotoxicity was evaluated at the same concentration employed to evaluate its anti-HBV activity. Anti-HBV activity was evaluated by quantification of extracellular HBV DNA with direct qPCR. In particular, supernatant was collected and centrifuged for cell debris clarification, viral DNA was extracted from virions by addition of lysis buffer (1 mM 1,4-dithiothreitol, 0.2% sodium dodecyl sulphate) and incubated at 95° C. for 10 min. Samples were then diluted 1:40 and real time PCR amplification was performed with SYBR green assay (Power SYBR™ Green PCR Master Mix-Thermo Fisher Scientific) and specific HBV primer (HBV-DF:5′-[…]-3′ (SEQ ID No. 1), HBV-DR:5′-[…]-3′ (SEQ ID No. 2)).
Antiviral activity data for each compound are reported as EC50 value (see Table 1 legend). Excel and Graphpad Prism programs are typically used for data elaboration and EC50 calculation.

SMILES | EC50 (HBV [2]; Hepatitis B virus) | EC50 (HBV [2]) | also measured
O=C(Nc1cc(F)c(F)c(F)c1)c1ccc(F)c(S(=O)(=O)N2CCC(O)CC2)c1 [NVR3-778] |  |  | HBV DNA (HBV [1]): significant reduction; serum HBV RNA (HBV [1]): significant reduction
Cc1cc(NC(=O)c2c3c(cn2C)S(=O)(=O)NC2CN(C(=O)C(=O)NCC(F)(F)F)CCC2CO3)ccc1F (racemic) [Example E61, Cis-N-(4-fluoro-3-methylphenyl)-2-methyl-7-(2-oxo-2-((2,2,2-trifluoroethyl)amino)acetyl)-5,5a,6,7,8,9,9a,10-octahydro-2H-pyrido[3,4-f]pyrrolo[3,4-b][1,4,5]oxathiazocine-1-carboxamide 4,4-dioxide] | < 500 nM |  | 
Cc1cc(NC(=O)c2c3c(cn2C)S(=O)(=O)NC2CN(C(=O)C(=O)NC(C)(C)C(F)(F)F)CCC2CO3)ccc1F (racemic) [Example E62, Cis-N-(4-fluoro-3-methylphenyl)-2-methyl-7-(2-oxo-2-((1,1,1-trifluoro-2-methylpropan-2-yl)amino)acetyl)-5,5a,6,7,8,9,9a,10-octahydro-2H-pyrido[3,4-f]pyrrolo[3,4-b][1,4,5]oxathiazocine-1-carboxamide 4,4-dioxide] | < 500 nM |  | 
Cc1cc(NC(=O)c2c3c(cn2C)S(=O)(=O)NC2CCN(C(=O)C(=O)N4CC(F)(F)C4)CC2CO3)ccc1F (racemic) [Example E55, Trans-8-(2-(3,3-difluoroazetidin-1-yl)-2-oxoacetyl)-N-(4-fluoro-3-methylphenyl)-2-methyl-5,5a,6,7,8,9,9a,10-octahydro-2H-pyrido[4,3-f]pyrrolo[3,4-b][1,4,5]oxathiazocine-1-carboxamide 4,4-dioxide] | < 500 nM |  | 
Cc1cc(NC(=O)c2c3c(cn2C)S(=O)(=O)NC2CCN(C(=O)C(=O)NC4CC4)CC2CO3)ccc1F (racemic) [Example E54, Trans-8-(2-(cyclopropylamino)-2-oxoacetyl)-N-(4-fluoro-3-methylphenyl)-2-methyl-5,5a,6,7,8,9,9a,10-octahydro-2H-pyrido[4,3-f]pyrrolo[3,4-b][1,4,5]oxathiazocine-1-carboxamide 4,4-dioxide] | < 500 nM |  | 
Cc1cc(NC(=O)c2c3c(cn2C)S(=O)(=O)NC2CCN(C(=O)C(=O)N[C@H](C)C(F)(F)F)CC2CO3)ccc1F (mixture of isomers) [Example E72, Cis-N-(4-fluoro-3-methylphenyl)-2-methyl-8-(2-oxo-2-(((R)-1,1,1-trifluoropropan-2-yl)amino)acetyl)-5,5a,6,7,8,9,9a,10-octahydro-2H-pyrido[4,3-f]pyrrolo[3,4-b][1,4,5]oxathiazocine-1-carboxamide 4,4-dioxide] |  | < 500 nM | 
Cc1cc(NC(=O)c2c3c(cn2C)S(=O)(=O)NC2CN(C(=O)C(=O)NC(C)(C)C(F)(F)F)CCC2CO3)ccc1F (racemic) [Example E69, Trans-N-(4-fluoro-3-methylphenyl)-2-methyl-7-(2-oxo-2-((1,1,1-trifluoro-2-methylpropan-2-yl)amino)acetyl)-5,5a,6,7,8,9,9a,10-octahydro-2H-pyrido[3,4-f]pyrrolo[3,4-b][1,4,5]oxathiazocine-1-carboxamide 4,4-dioxide] |  | < 500 nM | 
Cc1cc(NC(=O)c2c3c(cn2C)S(=O)(=O)NC2CCN(C(=O)C(=O)NCC(F)(F)F)CC2CO3)ccc1F (racemic) [Example E73, Cis-N-(4-fluoro-3-methylphenyl)-2-methyl-8-(2-oxo-2-((2,2,2-trifluoroethyl)amino)acetyl)-5,5a,6,7,8,9,9a,10-octahydro-2H-pyrido[4,3-f]pyrrolo[3,4-b][1,4,5]oxathiazocine-1-carboxamide 4,4-dioxide] |  | < 500 nM | 
Cc1cc(NC(=O)c2c3c(cn2C)S(=O)(=O)NC2CN(C(=O)C(=O)NC4CC4)CCC2CO3)ccc1F (racemic) [Example E64, Cis-7-(2-(cyclopropylamino)-2-oxoacetyl)-N-(4-fluoro-3-methylphenyl)-2-methyl-5,5a,6,7,8,9,9a,10-octahydro-2H-pyrido[3,4-f]pyrrolo[3,4-b][1,4,5]oxathiazocine-1-carboxamide 4,4-dioxide] | < 500 nM |  | 
Cc1cc(NC(=O)c2c3c(cn2C)S(=O)(=O)NC2(C)CN(C(=O)C(=O)N[C@H](C)C(F)(F)F)CC2CO3)ccc1F (stereo in doubt) [Example E27, Cis-N-(4-fluoro-3-methylphenyl)-3a,7-dimethyl-2-(2-oxo-2-(((R)-1,1,1-trifluoropropan-2-yl)amino)acetyl)-2,3,3a,4,10,10a-hexahydro-1H,7H-dipyrrolo[3,4-b:3 ‘,4’-f][1,4,5]oxathiazocine-8-carboxamide 5,5-dioxide] | < 500 nM |  | 
Cc1cc(NC(=O)c2c3c(cn2C)S(=O)(=O)NC2CN(C(=O)C(=O)NCC(F)(F)F)CCC2CO3)ccc1F (racemic) [Example E68, Trans-N-(4-fluoro-3-methylphenyl)-2-methyl-7-(2-oxo-2-((2,2,2-trifluoroethyl)amino)acetyl)-5,5a,6,7,8,9,9a,10-octahydro-2H-pyrido[3,4-f]pyrrolo[3,4-b][1,4,5]oxathiazocine-1-carboxamide 4,4-dioxide] |  | < 500 nM | 
Cc1cc(NC(=O)c2c3c(cn2C)S(=O)(=O)NC2CN(C(=O)C(=O)N4CC(F)(F)C4)CCC2CO3)ccc1F (racemic) [Example E63, Cis-7-(2-(3,3-difluoroazetidin-1-yl)-2-oxoacetyl)-N-(4-fluoro-3-methylphenyl)-2-methyl-5,5a,6,7,8,9,9a,10-octahydro-2H-pyrido[3,4-f]pyrrolo[3,4-b][1,4,5]oxathiazocine-1-carboxamide 4,4-dioxide] | < 500 nM |  | 
